Patent publication US20260295053A1, “COMPOUNDS FOR DEGRADATION AND INHIBITION OF KRAS (G12D) PROTEIN” (Shenzhen Ionova Life Science Co., Ltd., priority 2023, published 2026)

Legend:
AsPC-1 cells = experiment: AsPC-1 cell proliferation assay (CellTiter Glo); type: cell-based; settings: 6 days
Outline: (§1)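 Degradation: 22,000 cells/well grown to ~90% confluency, 24 h compound, fixed/permeabilised, anti-KRAS G12D + β-actin antibodies, near-IR fluorescence, DC50. Proliferation: 3,500 cells/well overnight, 6 d compound, CellTiter Glo luminescence, IC50. Dosing […]–1.5 nM final, 1:3 steps.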

KRAS (G12D) = molecular target: T1, KRAS (G12D) (Homo sapiens, UniProt P01116, G12D); experiment: KRAS (G12D) cellular degradation assay in AsPC-1 cells; type: cell-based; settings: 24 hours, antibody fluorescence (Odyssey CLX), DC50 half-maximal degradation concentration
T1 construct: in-cell western with KRAS G12D antibody after 24 h
T1 sequence (P01116 1-188 isoform P01116-2 G12D): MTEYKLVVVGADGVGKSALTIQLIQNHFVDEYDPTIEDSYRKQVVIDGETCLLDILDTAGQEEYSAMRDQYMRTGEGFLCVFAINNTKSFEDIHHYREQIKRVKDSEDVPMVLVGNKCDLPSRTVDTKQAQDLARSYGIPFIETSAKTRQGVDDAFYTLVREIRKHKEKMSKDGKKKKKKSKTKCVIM
Outline: as §1

Compound	IC50 (AsPC-1 cells; Homo sapiens, ASPC1, 144 h) [nM]	DC50 (KRAS (G12D)) [nM]	IC50 (AsPC-1 cells) [nM]
CCn1nccc1-c1ccc([C@H](CO)NC(=O)[C@@H]2C[C@@H](O)CN2C(=O)[C@H](C(C)C)n2cc(-c3ccc(COc4c(-c5c(C)c(F)cc6[nH]ncc56)c(C5CC5)cc5c(N6C[C@H]7C[C@@H]6CN7)nc(OC6CCOCC6)nc45)cc3)nn2)cc1 (stereo in doubt) [Example 10, (2S,4R)-1-((2S)-2-(4-(4-(((4-((1R,4R)-2,5-diazabicyclo[2.2.1]heptan-2-yl)-6-cyclopropyl-7-(6-fluoro-5-methyl-1H-indazol-4-yl)-2-((tetrahydro-2H-pyran-4-yl)oxy)quinazolin-8-yl)oxy)methyl)phenyl)-1H-1,2,3-triazol-1-yl)-3-methylbutanoyl)-N—((R)-1-(4-(1-ethyl-1H-pyrazol-5-yl)phenyl)-2-hydroxyethyl)-4-hydroxypyrrolidine-2-carboxamide]	10 to 100	10 to 100	–
CO[C@@H](C)COc1nc(N2C[C@@H]3C[C@H]2CN3)c2cc(C3CC3)c(-c3c(C)c(F)cc4[nH]ncc34)c(OCc3ccc(-c4cn([C@H](C(=O)N5C[C@H](O)C[C@H]5C(=O)N[C@H](C#Cc5ccc(F)cc5F)CO)C(C)C)nn4)cc3)c2n1 [Example 40, (2S,4R)-1-((2S)-2-(4-(4-(((4-((1S,4S)-2,5-diazabicyclo[2.2.1]heptan-2-yl)-6-cyclopropyl-7-(6-fluoro-5-methyl-1H-indazol-4-yl)-2-((S)-2-methoxypropoxy)quinazolin-8-yl)oxy)methyl)phenyl)-1H-1,2,3-triazol-1-yl)-3-methylbutanoyl)-N—((R)-4-(2,4-difluorophenyl)-1-hydroxybut-3-yn-2-yl)-4-hydroxypyrrolidine-2-carboxamide]	10 to 100	10 to 100	–
CCn1nccc1-c1ccc([C@H](CO)NC(=O)[C@@H]2C[C@@H](O)CN2C(=O)[C@H](C(C)C)n2cc(-c3ccc(COc4c(-c5c(C)c(F)cc6[nH]ncc56)c(C5CC5)cc5c(N6CC7CCC(C6)N7)nc(OC[C@H](C)OC)nc45)cc3)nn2)cc1 (single isomer, unassigned) [Example 8]	–	10 to 100	10 to 100
CCn1nccc1-c1ccc([C@H](CO)NC(=O)[C@@H]2C[C@@H](O)CN2C(=O)[C@H](C(C)C)n2cc(-c3ccc(COc4c(-c5c(C)c(F)cc6[nH]ncc56)c(C(F)(F)F)cc5c(N6C[C@@H]7C[C@H]6CN7)nc(OC[C@H](C)OC)nc45)cc3)nn2)cc1 [Example 30, (2S,4R)-1-((2S)-2-(4-(4-(((4-((1S,4S)-2,5-diazabicyclo[2.2.1]heptan-2-yl)-7-(6-fluoro-5-methyl-1H-indazol-4-yl)-2-((S)-2-methoxypropoxy)-6-(trifluoromethyl)quinazolin-8-yl)oxy)methyl)phenyl)-1H-1,2,3-triazol-1-yl)-3-methylbutanoyl)-N—((R)-1-(4-(1-ethyl-1H-pyrazol-5-yl)phenyl)-2-hydroxyethyl)-4-hydroxypyrrolidine-2-carboxamide]	< 10	< 10	–
CCn1nccc1-c1ccc([C@@H](NC(=O)[C@@H]2C[C@@H](O)CN2C(=O)[C@H](C(C)C)n2cc(-c3ccc(COc4c(-c5c(C)c(F)cc6[nH]ncc56)c(C5CC5)cc5c(N(C)[C@H]6CCNC6)nc(O[C@H]6C[C@H](OC)C6)nc45)cc3)nn2)[C@H](C)O)c2c1CC2 [Example 173, (2S,4R)-1-((2S)-2-(4-(4-(((6-cyclopropyl-7-(6-fluoro-5-methyl-1H-indazol-4-yl)-2-((1r,3S)-3-methoxycyclobutoxy)-4-(methyl((S)-pyrrolidin-3-yl)amino)quinazolin-8-yl)oxy)methyl)phenyl)-1H-1,2,3-triazol-1-yl)-3-methylbutanoyl)-N-((1R,2S)-1-(5-(1-ethyl-1H-pyrazol-5-yl)bicyclo[4.2.0]octa-1(6),2,4-trien-2-yl)-2-hydroxypropyl)-4-hydroxypyrrolidine-2-carboxamide]	< 10	< 10	–
CO[C@@H](C)COc1nc(N2CCCNCC2)c2cc(C3CC3)c(-c3c(C)c(F)cc4[nH]ncc34)c(OCc3ccc(-c4cn([C@H](C(=O)N5C[C@H](O)C[C@H]5C(=O)N[C@H](c5ccc(-c6scnc6C)cc5)[C@H](C)O)C(C)C)nn4)cc3)c2n1 [Example 157, (2S,4R)-1-((2S)-2-(4-(4-(((6-cyclopropyl-4-(1,4-diazepan-1-yl)-7-(6-fluoro-5-methyl-1H-indazol-4-yl)-2-((S)-2-methoxypropoxy)quinazolin-8-yl)oxy)methyl)phenyl)-1H-1,2,3-triazol-1-yl)-3-methylbutanoyl)-4-hydroxy-N-((1R,2S)-2-hydroxy-1-(4-(4-methylthiazol-5-yl)phenyl)propyl)pyrrolidine-2-carboxamide]	< 10	< 10	–
CCn1nccc1-c1ccc([C@H](CO)NC(=O)[C@@H]2C[C@@H](O)CN2C(=O)[C@H](C(C)C)n2cc(-c3ccc(COc4c(-c5c(C)c(F)cc6[nH]ncc56)c(C5CC5)cc5c(N6C[C@@H]7C[C@H]6CN7)nc(OC6CCC7(CC6)COC7)nc45)cc3)nn2)cc1 [Example 43, (2S,4R)-1-((2S)-2-(4-(4-(((2-((2-oxaspiro[3.5]nonan-7-yl)oxy)-4-((1S,4S)-2,5-diazabicyclo[2.2.1]heptan-2-yl)-6-cyclopropyl-7-(6-fluoro-5-methyl-1H-indazol-4-yl)quinazolin-8-yl)oxy)methyl)phenyl)-1H-1,2,3-triazol-1-yl)-3-methylbutanoyl)-N—((R)-1-(4-(1-ethyl-1H-pyrazol-5-yl)phenyl)-2-hydroxyethyl)-4-hydroxypyrrolidine-2-carboxamide]	< 10	< 10	–
CCn1nccc1-c1ccc([C@H](CO)NC(=O)[C@@H]2C[C@@H](O)CN2C(=O)[C@H](C(C)C)n2cc(-c3ccc(COc4c(-c5c(C)c(F)cc6[nH]ncc56)c(C5CC5)cc5c(N6CCCNCC6)nc(OC[C@@H]6CCCO6)nc45)cc3)nn2)cc1 [Example 207, (2S,4R)-1-((2S)-2-(4-(4-(((6-cyclopropyl-4-(1,4-diazepan-1-yl)-7-(6-fluoro-5-methyl-1H-indazol-4-yl)-2-(((S)-tetrahydrofuran-2-yl)methoxy)quinazolin-8-yl)oxy)methyl)phenyl)-1H-1,2,3-triazol-1-yl)-3-methylbutanoyl)-N—((R)-1-(4-(1-ethyl-1H-pyrazol-5-yl)phenyl)-2-hydroxyethyl)-4-hydroxypyrrolidine-2-carboxamide]	< 10	< 10	–

Further lines, results first:

IC50 (AsPC-1 cells; Homo sapiens, ASPC1, 144 h) [nM]	DC50 (KRAS (G12D)) [nM]	IC50 (AsPC-1 cells) [nM]	Compound
< 10	< 10	–	Cc1ncsc1-c1ccc([C@H](CO)NC(=O)[C@@H]2C[C@@H](O)CN2C(=O)[C@H](C(C)C)n2cc(-c3ccc(COc4c(-c5c(C)c(F)cc6[nH]ncc56)c(C5CC5)cc5c(N6C[C@@H]7C[C@H]6CN7)nc(OC6CC7(COC7)C6)nc45)cc3)nn2)cc1 [Example 129, (2S,4R)-1-((2S)-2-(4-(4-(((2-((2-oxaspiro[3.3]heptan-6-yl)oxy)-4-((1S,4S)-2,5-diazabicyclo[2.2.1]heptan-2-yl)-6-cyclopropyl-7-(6-fluoro-5-methyl-1H-indazol-4-yl)quinazolin-8-yl)oxy)methyl)phenyl)-1H-1,2,3-triazol-1-yl)-3-methylbutanoyl)-4-hydroxy-N—((R)-2-hydroxy-1-(4-(4-methylthiazol-5-yl)phenyl)ethyl)pyrrolidine-2-carboxamide]
< 10	< 10	–	Cc1ncsc1-c1ccc([C@H](CO)NC(=O)[C@@H]2C[C@@H](O)CN2C(=O)[C@H](C(C)C)n2cc(-c3ccc(COc4c(-c5c(C)c(F)cc6[nH]ncc56)c(C5CC5)cc5c(N6C[C@@H]7C[C@H]6CN7)nc(OC6CC7COCC7C6)nc45)cc3)nn2)cc1 (stereo partly drawn) [Example 93, (2S,4R)-1-((2S)-2-(4-(4-(((4-((1S,4S)-2,5-diazabicyclo[2.2.1]heptan-2-yl)-6-cyclopropyl-7-(6-fluoro-5-methyl-1H-indazol-4-yl)-2-((hexahydro-1H-cyclopenta[c]furan-5-yl)oxy)quinazolin-8-yl)oxy)methyl)phenyl)-1H-1,2,3-triazol-1-yl)-3-methylbutanoyl)-4-hydroxy-N—((R)-2-hydroxy-1-(4-(4-methylthiazol-5-yl)phenyl)ethyl)pyrrolidine-2-carboxamide]
< 10	< 10	–	CCn1nccc1-c1ccc([C@@H](NC(=O)[C@@H]2C[C@@H](O)CN2C(=O)[C@H](C(C)C)n2cc(-c3ccc(COc4c(-c5c(C)c(F)cc6[nH]ncc56)c(C5CC5)cc5c(N6CCCNCC6)nc(OC[C@H](C)OC)nc45)cc3)nn2)[C@H](C)O)cc1 [Example 184, (2S,4R)-1-((2S)-2-(4-(4-(((6-cyclopropyl-4-(1,4-diazepan-1-yl)-7-(6-fluoro-5-methyl-1H-indazol-4-yl)-2-((S)-2-methoxypropoxy)quinazolin-8-yl)oxy)methyl)phenyl)-1H-1,2,3-triazol-1-yl)-3-methylbutanoyl)-N-((1R,2S)-1-(4-(1-ethyl-1H-pyrazol-5-yl)phenyl)-2-hydroxypropyl)-4-hydroxypyrrolidine-2-carboxamide]
< 10	< 10	–	CCn1nccc1-c1ccc([C@@H](NC(=O)[C@@H]2C[C@@H](O)CN2C(=O)[C@H](C(C)C)n2cc(-c3ccc(COc4c(-c5c(C)c(F)c(F)c6[nH]ncc56)c(C5CC5)cc5c(N6C[C@@H]7C[C@H]6CN7)nc(OC[C@H](C)OC)nc45)cc3)nn2)[C@H](C)O)cc1 [Example 89, (2S,4R)-1-((2S)-2-(4-(4-(((4-((1S,4S)-2,5-diazabicyclo[2.2.1]heptan-2-yl)-6-cyclopropyl-7-(6,7-difluoro-5-methyl-1H-indazol-4-yl)-2-((S)-2-methoxypropoxy)quinazolin-8-yl)oxy)methyl)phenyl)-1H-1,2,3-triazol-1-yl)-3-methylbutanoyl)-N-((1R,2S)-1-(4-(1-ethyl-1H-pyrazol-5-yl)phenyl)-2-hydroxypropyl)-4-hydroxypyrrolidine-2-carboxamide]
